Measurements published in patent US20230028880A1, “CD38-BINDING AGENTS AND USES THEREOF” (Biohaven Therapeutics Ltd., priority 2019, published 2023).
Where “and” joins values, the source holds several entries; their conditions need not be identical. Equal values may be shown once. *1 amine or outer side, *2 acyl side, *3 side chain or, on linkers, in order; H or OH if unused. Bridges are numbered along the chain shown (N, C = ends). Where no end group is shown, it is not given here. [ ]: non-standard residue; d: D form. d(γGlu) = O=C(O)[C@@H](CCC(=O)[*:2])N[*:1]; 12Ado = NCCCCCCCCCCCC(=O)O

B1: I-28 (peptide, part only; not given: PEG8 unit, part only)
peptide: [d(γGlu)][d(γGlu)][dE](12Ado)[d(γGlu)][d(γGlu)]GGDCAWHLGELVWCT
modifications: disulfide 9-19; not fully specified (N-terminus); also: N-terminal PEG8 joins a further peptide chain not given here

How the values were obtained:
Daudi cells [1] = assay: Ternary binding assay: recruitment of PE-labeled human IgG1k to Daudi cells (flow cytometry, MFI); format: cell-based; details: duplicate columns
Method: Various technologies can be utilized to assess and/or characterize recruitment of antibodies to target cells, e.g., cancer cells. One such assay is a ternary binding assay. An exemplary protocol is described herein. Compounds were diluted in DMSO (MP 191418) to 1000× the starting concentration used in the assay into a 96 well polypropylene plate (Corning 3357). They were then serially diluted in ½ log increments to generate 8-12 concentrations in DMSO (assay dependent). These DMSO stocks were then step diluted 1/100 into PBS (VWR Cat. #20012043). Step diluted compound range was then added into the polypropylene assay plate 1/10 the volume of the assay volume. Daudi (ATCC CCL-213), a non-adherent cell line, were counted and centrifuged and resuspended at a concentration of 100,000 cells per 90 ul in Flow buffer: 1% BSA (American Bio AB01088-00100); 0.5 mM EDTA (VWR 45001-122); PBS (VWR Cat. #20012043) with 11.1 ug/mL human IgG1k Phycoerythrin labeled (SouthernBiotech #0151K-09 PE). The cells were then added into the polypropylene plate with the step diluted compounds and incubated at 37° C. for 30 min. At the end of the incubation, the cells were centrifuged and washed 2× with How buffer containing 0.5% Tween 20 (BP337-500). Samples were analyzed on a BD FacsCelesta. Mean fluorescence was analyzed using Graphpad Prism and curves were fit using log(inhibitor) vs. response—Variable slope (four parameters).

[2] = test system: Effector cells (ADCC reporter cells) with Daudi cells; assay: ADCC reporter assay: Daudi cells, IVIG and ADCC reporter effector cells (luciferase, RLU); format: cell-based; details: IVIG; for Luminescence, ADCC reporter assay: 18 h, duplicate columns; for EC50: ADCC reporter assay
Method: Daudi (ATCC CCL-213) cells were resuspended in Opti-MEM (Thermo Fisher Scientific #31985070), counted (Life Technologies Countless II cell counter) and plated (5,000 cells in 25 uL/well; Corning plates: 3917). Compounds w diluted in DMSO (MP 191418) to 1000× the starting concentration used in the assay into a 96 well polypropylene plate (Corning 3357). They were then serially diluted in ½ log increments to generate 8 concentrations in DMSO (assay dependent). These DMSO stocks were then step diluted 1/250 into Opti-MEM. Step diluted compound range was then added into the polypropylene assay plate 25 uL/well. The human antibody solution (Grifols IVIG Fleogogamma #61953-0005-2) was diluted to 40 ug/mL and added 25 uL/well. Effector cells (ADCC reporter cells—Promega kit: G7018) were added 37,500 in 25 uL/well. The assay was then incubated 18 h at 37° C. Following the induction period, the plate was equilibrated to 25° C. followed the addition of the luciferase substrate (75 uL/well, 1 vial in 10 mL of Bio-Glo assay buffer, Promega kit: G7018). The luminescence was measured (Biotek Synergy H1 microplate reader).

Daudi cells [3] = assay: KILR ADCC killing assay: KILR-transfected Daudi cells with purified NK cells (% dead cells); format: cell-based; details: KILR Daudi cells with purified NK cells, duplicate columns
Excerpt: In some embodiments, CD38-ABT ARMs bind to target cells and antibodies, e.g., human antibodies. In some embodiments, such ternary structures present antibodies to effector cells such as NK cell and bind to, e.g., CD16a receptors. […] Daudi cells were transfected with KILR reporter construct (DiscoverX #97-0002). An attenuated lentivirus was designed to deliver a Moloney Murine Leukemia Virus (MMLV) engineered to drive expression of a housekeeping gene tagged with Enhanced ProLabel (ePL) a beta-Galactosidase (beta-gal) reporter fragment. This construct was designed to remain inside cells. Death leads to the release of the KILR reporter protein into the medium. Detection reagent (DiscoverX #97-0001L) contained the complementing beta-gal reporter fragment enzyme acceptor (EA). The two components combined to generate a chemiluminescent signal.

[4] = target: CD38 on Daudi cells (human) (UniProt P28907); assay: ternary binding, flow cytometry: Daudi cells + PE human IgG1k

Row | Molecule | MFI, recruitment of PE-labeled human IgG1k to Daudi cells (Daudi cells [1]; compound 0.03 nM) | MFI, recruitment of PE-labeled human IgG1k to Daudi cells (Daudi cells [1]; compound 0.1 nM) | MFI, recruitment of PE-labeled human IgG1k to Daudi cells (Daudi cells [1]; compound 0.3 nM) | MFI, recruitment of PE-labeled human IgG1k to Daudi cells (Daudi cells [1]; compound 1 nM) | MFI, recruitment of PE-labeled human IgG1k to Daudi cells (Daudi cells [1]; compound 3 nM) | MFI, recruitment of PE-labeled human IgG1k to Daudi cells (Daudi cells [1]; compound 10 nM) | MFI, recruitment of PE-labeled human IgG1k to Daudi cells (Daudi cells [1]; compound 30 nM) | MFI, recruitment of PE-labeled human IgG1k to Daudi cells (Daudi cells [1]; compound 100 nM) | MFI, recruitment of PE-labeled human IgG1k to Daudi cells (Daudi cells [1]; compound 300 nM) | MFI, recruitment of PE-labeled human IgG1k to Daudi cells (Daudi cells [1]; compound 1000 nM) | MFI, recruitment of PE-labeled human IgG1k to Daudi cells (Daudi cells [1]; compound 3000 nM) | Luminescence, ADCC reporter assay ([2]; compound 0.3 nM) | Luminescence, ADCC reporter assay ([2]; compound 1 nM) | Luminescence, ADCC reporter assay ([2]; compound 3 nM) | Luminescence, ADCC reporter assay ([2]; compound 10 nM) | Luminescence, ADCC reporter assay ([2]; compound 30 nM) | Luminescence, ADCC reporter assay ([2]; compound 100 nM) | Luminescence, ADCC reporter assay ([2]; compound 300 nM) | Luminescence, ADCC reporter assay ([2]; compound 1000 nM) | EC50 [2] [nM] | further results
1 | CCCCC[C@@H]1NC(=O)[C@H](CCCNC(=N)N)NC(=O)[C@H](C)NC(=O)CSC[C@@H](C(=O)NCCOCCOCCOCCOCCOCCOCCOCCOCCC(=O)NCCOCCOCCOCCOCCOCCOCCOCCOCCC(=O)N[C@@H](CC(=O)O)C(=O)N[C@H]2CSSC[C@@H](C(=O)N[C@H](C(=O)O)[C@@H](C)O)NC(=O)[C@H](Cc3c[nH]c4ccccc34)NC(=O)[C@H](C(C)C)NC(=O)[C@H](CC(C)C)NC(=O)[C@H](CCC(=O)O)NC(=O)CNC(=O)[C@H](CC(C)C)NC(=O)[C@H](Cc3c[nH]cn3)NC(=O)[C@H](Cc3c[nH]c4ccccc34)NC(=O)[C@H](C)NC2=O)NC(=O)[C@H](CC(=O)O)NC(=O)[C@H](CCCCC)NC(=O)[C@H](Cc2ccc(-c3ccccc3)cc2)NC(=O)[C@H](CC(C)C)NC(=O)[C@H](C(C)C)NC(=O)[C@H](CCC(N)=O)NC(=O)[C@H](CC(=O)O)NC(=O)[C@H](Cc2c[nH]cn2)NC(=O)[C@H](Cc2ccc(O)cc2)NC1=O [I-41] | 4489 and 2739 | 7612 and 4790 | 3076 and 2422 | 5751 and 3841 | 5283 and 6064 | 9033 and 5065 | 10036 and 10734 | 19188 and 14043 | 23096 and 16482 | 13982 and 11893 | 18339 and 21903 | 4814 RLU and 4964 RLU | 6793 RLU and 6656 RLU | 15011 RLU and 15516 RLU | 26140 RLU and 28413 RLU | 35410 RLU and 36310 RLU | 40904 RLU and 39344 RLU | 38409 RLU and 39619 RLU | 29516 RLU and 26828 RLU | – | –
2 | CCCCC[C@@H]1NC(=O)[C@H](CCCNC(=N)N)NC(=O)[C@H](C)NC(=O)CSC[C@@H](C(=O)NCCOCCOCCOCCOCCOCCOCCOCCOCCC(=O)NCCOCCOCCOCCOCCOCCOCCOCCOCCC(=O)N[C@@H](CC(=O)O)C(=O)N[C@H]2CSSC[C@@H](C(=O)N[C@H](C(=O)O)[C@@H](C)O)NC(=O)[C@H](Cc3c[nH]c4ccccc34)NC(=O)[C@H](C(C)C)NC(=O)[C@H](CC(C)C)NC(=O)[C@H](CCC(=O)O)NC(=O)CNC(=O)[C@H](CC(C)C)NC(=O)[C@H](Cc3c[nH]cn3)NC(=O)[C@H](Cc3c[nH]c4ccccc34)NC(=O)[C@H](C)NC2=O)NC(=O)[C@H](CC(=O)O)NC(=O)[C@H](CCCCC)NC(=O)[C@H](Cc2ccc(-c3ccccc3)cc2)NC(=O)[C@H](CC(C)C)NC(=O)[C@H](C(C)C)NC(=O)[C@H](CC(N)=O)NC(=O)[C@H](CC(=O)O)NC(=O)[C@H](Cc2c[nH]cn2)NC(=O)[C@H](Cc2ccc(O)cc2)NC1=O [I-42] | 7077 and 5990 | 5737 and 4704 | 3879 and 4284 | 4981 and 6900 | 6000 and 5101 | 6189 and 11302 | 9700 and 15077 | 16690 and 17157 | 14190 and 18622 | 20476 and 15023 | 13519 and 15909 | 4468 RLU and 4661 RLU | 13795 RLU and 13686 RLU | 20721 RLU and 20652 RLU | 32317 RLU and 32373 RLU | 36909 RLU and 40202 RLU | 40344 RLU and 39296 RLU | 39826 RLU and 37835 RLU | 27516 RLU and 28425 RLU | 1.4 | –
3 | CCCCC[C@@H]1NC(=O)[C@H](CCCNC(=N)N)NC(=O)[C@H](C)NC(=O)CSC[C@@H](C(=O)NCCCC(=O)N[C@@H](CC(=O)O)C(=O)N[C@H]2CSSC[C@@H](C(=O)N[C@H](C(N)=O)[C@@H](C)O)NC(=O)[C@H](Cc3c[nH]c4ccccc34)NC(=O)[C@H](C(C)C)NC(=O)[C@H](CC(C)C)NC(=O)[C@H](CCC(=O)O)NC(=O)CNC(=O)[C@H](CC(C)C)NC(=O)[C@H](Cc3c[nH]cn3)NC(=O)[C@H](Cc3c[nH]c4ccccc34)NC(=O)[C@H](C)NC2=O)NC(=O)[C@H](CC(=O)O)NC(=O)[C@H](CCCCC)NC(=O)[C@H](Cc2ccc(-c3ccccc3)cc2)NC(=O)[C@H](CC(C)C)NC(=O)[C@H](C(C)C)NC(=O)CNC(=O)[C@H](CC(=O)O)NC(=O)[C@H](Cc2c[nH]cn2)NC(=O)[C@H](Cc2ccc(O)cc2)NC1=O [I-30] | – | – | – | – | – | – | – | – | – | – | – | – | 4174 RLU and 4217 RLU | 4269 RLU and 4452 RLU | 11442 RLU and 11535 RLU | 17189 RLU and 17066 RLU | 20600 RLU and 19749 RLU | 22074 RLU and 21976 RLU | 22085 RLU and 21589 RLU | 12 | Luminescence, ADCC reporter assay ([2]; compound 3000 nM): 19456 RLU and 17760 RLU; % dead cells, KILR ADCC killing assay (Daudi cells [3]; compound 1 nM): 14.3% and 14.7%; % dead cells, KILR ADCC killing assay (Daudi cells [3]; compound 3 nM): 14.7% and 15.7%; % dead cells, KILR ADCC killing assay (Daudi cells [3]; compound 10 nM): 14.1%; % dead cells, KILR ADCC killing assay (Daudi cells [3]; compound 100 nM): 17.1% and 18.1%; % dead cells, KILR ADCC killing assay (Daudi cells [3]; compound 300 nM): 19% and 20.6%; % dead cells, KILR ADCC killing assay (Daudi cells [3]; compound 1000 nM): 19.2% and 20%
4 | B1 | – | – | – | – | – | – | – | – | – | – | – | – | – | – | – | – | – | – | – | – | MFI at 1 nM [4]: 216 and 385; MFI at 3 nM [4]: 400 and 751; MFI at 10 nM [4]: 1970 and 1940; MFI at 30 nM [4]: 4030 and 4740; MFI at 100 nM [4]: 5110 and 5380; MFI at 300 nM [4]: 6240 and 5320; MFI at 1000 nM [4]: 5150 and 5380; MFI at 3000 nM [4]: 5220 and 5330
